Measured values from ChEMBL document CHEMBL2169751, “Synthesis and biological evaluation of novel pyrazole derivatives with anticancer activity” (2011).

test system: Mycobacterium tuberculosis; experiment: Antimycobacterial activity against Mycobacterium tuberculosis H37Rv ATCC 27294 after 7 days by Resazurin assay; type: functional; parameters: concentration or dose not given beside the values

| SMILES | inhibition (INH) [%] |
| --- | --- |
| Cc1[nH]cnc1/C=N/NC(=O)c1cnc2c(C(F)(F)F)cccc2c1O | 90 |
| COc1ccc2[nH]cc(/C=N/NC(=O)c3cnc4c(C(F)(F)F)cccc4c3O)c2c1 | 95 |
| COC(=O)Cc1cc(/C=N/NC(=O)c2cnc3c(C(F)(F)F)cccc3c2O)co1 | <90 |
| O=C(N/N=C/c1cnc[nH]1)c1cnc2c(C(F)(F)F)cccc2c1O | 90 |
| Cc1cccc2c(/C=N/NC(=O)c3cnc4c(C(F)(F)F)cccc4c3O)c[nH]c12 | 95 |
| Cn1nnc2cc(/C=N\NC(=O)c3cnc4c(C(F)(F)F)cccc4c3O)ccc21 | <90 |
| Cn1cccc1/C=N\NC(=O)c1cnc2c(C(F)(F)F)cccc2c1O | 90 |
| O=C(N/N=C/c1ccc2c(c1)CCO2)c1cnc2c(C(F)(F)F)cccc2c1O | 0 |
| COc1ccc(/C=N/NC(=O)c2cnc3c(C(F)(F)F)cccc3c2O)c(F)c1 | 95 |
| O=C(N/N=C/c1ccc(OC(F)(F)C(F)F)cc1)c1cnc2c(C(F)(F)F)cccc2c1O | <90 |
| CSc1ccccc1/C=N/NC(=O)c1cnc2c(C(F)(F)F)cccc2c1O | 0 |
| O=C(N/N=C/c1cc(F)ccc1O)c1cnc2c(C(F)(F)F)cccc2c1O | <90 |
| COc1ccc(/C=N/NC(=O)c2cnc3c(C(F)(F)F)cccc3c2O)cc1 | 90 |
| COc1ccc(/C=N/NC(=O)c2cnc3c(C(F)(F)F)cccc3c2O)cc1O | <90 |
| O=C(N/N=C/c1ccncc1)c1cnc2c(C(F)(F)F)cccc2c1O | 0 |
| Cc1ccc(/C=N/NC(=O)c2cnc3c(C(F)(F)F)cccc3c2O)cc1 | <90 |
| O=C(NNC(=S)Nc1cccnc1)c1cnc2c(C(F)(F)F)cccc2c1O | 0 |
| O=C(NNC(=S)Nc1cccc(Cl)c1)c1cnc2c(C(F)(F)F)cccc2c1O | <90 |
| O=C(NNC(=S)Nc1ccccc1F)c1cnc2c(C(F)(F)F)cccc2c1O | 95 |
| Cc1ccc(NC(=S)NNC(=O)c2cnc3c(C(F)(F)F)cccc3c2O)cc1 | 0 |
| COc1ccc(NC(=S)NNC(=O)c2cnc3c(C(F)(F)F)cccc3c2O)cc1 | <90 |
| Cc1cc(C)cc(NC(=O)NNC(=O)c2cnc3c(C(F)(F)F)cccc3c2O)c1 | <90 |
| O=C(NNC(=O)c1cnc2c(C(F)(F)F)cccc2c1O)Nc1cccc(Cl)c1 | <90 |
| COc1ccc(NC(=O)NNC(=O)c2cnc3c(C(F)(F)F)cccc3c2O)cc1 | 90 |
| Cc1ccc(NC(=O)NNC(=O)c2cnc3c(C(F)(F)F)cccc3c2O)cc1 | 90 |
| CCc1ccc(NC(=O)NNC(=O)c2cnc3c(C(F)(F)F)cccc3c2O)cc1 | <90 |
| NNC(=O)c1ccncc1 [ISONIAZID] | 95 |
| CO[C@H]1/C=C/O[C@@]2(C)Oc3c(C)c(O)c4c(O)c(c(/C=N/N5CCN(C)CC5)c(O)c4c3C2=O)NC(=O)/C(C)=C\C=C\[C@H](C)[C@H](O)[C@@H](C)[C@@H](O)[C@@H](C)[C@H](OC(C)=O)[C@@H]1C [RIFAMPIN] | 95 |
